Assay results taken from publication PMC8290022, “Electrophysiological characterization of a diverse group of sugar transporters from Trichoderma reesei” (Scientific Reports, 2021).

These compounds were tested against T1, STR3 (Trire2_62380) (Trichoderma reesei, UniProt G0RKF0) (assay: two-electrode voltage clamp in Xenopus oocytes, transport current). Settings: pH 5.5, -50 mV, H+ symport.
T1 construct: gene TRIREDRAFT_62380
T1 sequence (G0RKF0 entry or part of it): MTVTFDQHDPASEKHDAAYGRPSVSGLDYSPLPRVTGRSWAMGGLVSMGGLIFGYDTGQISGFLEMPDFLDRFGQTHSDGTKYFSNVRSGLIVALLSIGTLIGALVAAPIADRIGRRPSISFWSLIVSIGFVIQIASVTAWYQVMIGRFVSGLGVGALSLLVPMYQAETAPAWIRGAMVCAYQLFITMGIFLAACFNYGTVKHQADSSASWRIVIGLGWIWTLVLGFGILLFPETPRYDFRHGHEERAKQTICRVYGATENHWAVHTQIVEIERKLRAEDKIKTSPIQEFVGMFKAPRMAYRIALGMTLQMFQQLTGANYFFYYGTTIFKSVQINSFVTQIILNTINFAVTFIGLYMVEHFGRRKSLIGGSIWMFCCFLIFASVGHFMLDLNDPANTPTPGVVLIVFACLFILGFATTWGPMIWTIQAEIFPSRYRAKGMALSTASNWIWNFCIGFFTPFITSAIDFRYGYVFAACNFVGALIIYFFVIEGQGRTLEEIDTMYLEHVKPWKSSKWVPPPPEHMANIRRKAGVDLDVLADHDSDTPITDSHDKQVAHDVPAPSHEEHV
Assay type: cell-based
With `OC[C@H]1OC(O)[C@H](O)[C@@H](O)[C@H]1O` (stereo partly drawn) [D-galactose] the Km was 1110 ± 490 µM. With `OC[C@H]1OC(O)[C@H](O)[C@@H](O)[C@@H]1O` (stereo partly drawn) [D-glucose] the Km was 57.9 ± 17.7 µM. Compound `OC[C@H]1OC(O)[C@@H](O)[C@@H](O)[C@@H]1O` (stereo partly drawn) [D-mannose] has a Km of 186 ± 18.9 µM.
